Read-outs that look alike come from different tables or passages of the source.
Key:
[1] = test system: E. coli EC107, ST 131; assay: Broth microtiter dilution MIC, EC107; format: cell-based; conditions: Escherichia coli, CTX-M-15 (A), OXA-1 (D), read-out: MIC (mg/liter) for β-lactam
Experimental: (§1) The in vitro activity of cyclic boronate 2 was assessed using nine clinical isolates carrying multiple β-lactamases (Table 3). The isolates selected included Enterobacteriaceae (E. coli ST 131, Klebsiella pneumoniae ST 258, and Providencia stuartii) producing class A ESBLs (CTX-M-15, CTX-M-27, SHV-5, and VEB-1), serine carbapenemase (KPC-2) and metallo-carbapenemases (VIM-1 and VIM-2), plasmid-mediated AmpC (CMY-2), and/or carbapenem-hydrolyzing OXA-48-like oxacillinases (OXA-181 and OXA-232) in various combinations. The activity against carbapenemase-producing strains of Pseudomonas aeruginosa (VIM-2) and Acinetobacter baumannii (OXA-23) was also investigated. All isolates have previously undergone extensive phenotypic and genotypic characterization ([60]).
(§2) MICs were determined using commercial Sensititre GN4F panels (Thermo Scientific, UK; lot B55051) and Mueller-Hinton II cation-adjusted broth (Oxoid, UK), with and without the addition of cyclic boronate 2 at a fixed concentration of 10 μg/ml. Plates were incubated at 37°C for 18 h and MICs read by eye following the addition of alamarBlue reagent (Trek Diagnostics).

[2] = test system: E. coli EC114, ST 131; assay: Broth microtiter dilution MIC, EC114; format: cell-based; conditions: Escherichia coli, TEM-1 (A), CTX-M-15 (A), OXA-1 (D), read-out: MIC (mg/liter) for β-lactam
Experimental: as §1, §2

[3] = test system: E. coli EC86; assay: Broth microtiter dilution MIC, EC86; format: cell-based; conditions: CTX-M-15 (A), CMY-4 (C), OXA-181 (D); for MIC: Escherichia coli
Experimental: as §1, §2

[4] = test system: E. coli EC113, ST 131; assay: Broth microtiter dilution MIC, EC113; format: cell-based; conditions: Escherichia coli, CTX-M-27 (A), read-out: MIC (mg/liter) for β-lactam
Experimental: as §1, §2

[5] = test system: K. pneumoniae KP15; assay: Broth microtiter dilution MIC, KP15; format: cell-based; conditions: Klebsiella pneumoniae, TEM-1 (A), SHV-11 (A), KPC-2 (A), read-out: MIC (mg/liter) for β-lactam
Experimental: as §1, §2

[6] = test system: K. pneumoniae KP41; assay: Broth microtiter dilution MIC, KP41; format: cell-based; conditions: Klebsiella pneumoniae, TEM-1, SHV-1, SHV-5, SHV-11, CTX-M-15 (A), OXA-232 (D), read-out: MIC (mg/liter) for β-lactam
Experimental: as §1, §2

[7] = test system: K. pneumoniae KP58; assay: Broth microtiter dilution MIC, KP58; format: cell-based; conditions: Klebsiella pneumoniae, SHV-11 (A), VIM-4 (B), read-out: MIC (mg/liter) for β-lactam
Experimental: as §1, §2

[8] = test system: P. stuartii PS71; assay: Broth microtiter dilution MIC, PS71; format: cell-based; conditions: Providencia stuartii, TEM-1 (A), SHV-5 (A), VEB-1 (A), VIM-1 (B), read-out: MIC (mg/liter) for β-lactam
Experimental: as §1, §2

[9] = test system: P. aeruginosa PA12, ST 111; assay: Broth microtiter dilution MIC, PA12; format: cell-based; conditions: Pseudomonas aeruginosa, VIM-2 (B), read-out: MIC (mg/liter) for β-lactam
Experimental: as §1, §2

[10] = test system: A. baumannii AB14; assay: Broth microtiter dilution MIC, AB14; format: cell-based; conditions: Acinetobacter baumannii, OXA-23 (D), OXA-51 (D), read-out: MIC (mg/liter) for β-lactam
Experimental: as §1, §2

[11] = molecular target: T1, CTX-M-15 (Escherichia coli, UniProt Q9EXV5); assay: FC5 fluorogenic β-lactamase inhibition assay, CTX-M-15; format: biochemical; conditions: FC5 substrate, read-out: IC50, nM (mean ± SD) for CTX-M-15
T1 construct: hexahistidine (pOPINF, 3C-cleavable) (N, cleaved yes); made in house; host or cells: E. coli BL21(DE3)
Source text: To investigate the extent to which cyclic boronates inhibit class C β-lactamases as well as the important class A ESBL and class D carbapenemase targets, we used a fluorogenic assay ([22]) to screen the cyclic boronates, which we have found to inhibit other β-lactamases ([21]), against them. The β-lactamases used for screening included TEM-1 and CTX-M-15 (class A), the metallo-β-lactamase (MBL) from Bacillus cereus (BcII), Verona integron-encoded metallo-β-lactamase 1 (VIM-1) (class B), AmpC from P. aeruginosa (class C), and OXA-23 and OXA-48 (class D), collectively representing all classes of β-lactamase.
Inhibition assays were carried out using FC5 as a fluorogenic reporter substrate ([22]). Enzyme concentrations and buffers were the same as those employed in steady-state kinetic studies (see Table S2 in the supplemental material). […] The concentration of FC5 employed was 10 μM for TEM-1 and 5 μM for all other enzymes. […] Data at 0 min of incubation were obtained by addition of enzyme to a premixed solution of inhibitor and substrate. Residual enzyme activity was determined for a range of inhibitor concentrations. Nonlinear regression fitting of IC50 curves was carried out using a three-parameter dose-response curve in GraphPad Prism. Errors in IC50 are expressed as [σ(log IC50)/log IC50)] × IC50.
45 Steady-state kinetics studies used a Pherastar FS microplate reader with UV-STAR® 96-well,
47 black, µclear® plates (Greiner Bio-One) for FC5 (1). Buffers employed were 100 mM
48 phosphate buffer pH 7.5, 0.01% (v/v) Triton X-100 for TEM-1, CTX-M-15 and AmpC, 100 mM
49 phosphate buffer pH 7.5, 50 mM sodium bicarbonate, 0.01% Triton X-100 for OXA-23 and
51 1 µM ZnSO4, 0.01% Triton X-100 for MBL assays. Reaction progress was monitored at 298 K
53 intensity (λex = 380 nm, λem = 480 nm) for FC5 (1). Suitable enzyme concentrations for
54 kinetic analysis were determined by monitoring changes in absorbance/fluorescence for
55 enzyme concentrations between 20 nM and 20 pM.
Kinetic constants were determined using the initial rate of hydrolysis with the
57 reaction initiated through the addition of enzyme to pre-prepared substrate concentrations.
58 Substrate concentrations ranged between 400 µM and 0.4 µM. The Michaelis-Menten
59 equation was fitted to data by non-linear regression using GraphPad Prism software to
60 calculate the Michaelis-Menten constant and the limiting rate (2).

[12] = with cyclic boronate 2 (10 mg/liter) supplementation
[13] = without cyclic boronate 2 supplementation
[14] = EC86, read-out: MIC (mg/liter) for β-lactam, E. coli EC86, without cyclic boronate 2 supplementation
[15] = E. coli EC86, with cyclic boronate 2 (10 mg/liter) supplementation, read-out: MIC (mg/liter) for β-lactam

T1 sequence (Q9EXV5 entry or part of it): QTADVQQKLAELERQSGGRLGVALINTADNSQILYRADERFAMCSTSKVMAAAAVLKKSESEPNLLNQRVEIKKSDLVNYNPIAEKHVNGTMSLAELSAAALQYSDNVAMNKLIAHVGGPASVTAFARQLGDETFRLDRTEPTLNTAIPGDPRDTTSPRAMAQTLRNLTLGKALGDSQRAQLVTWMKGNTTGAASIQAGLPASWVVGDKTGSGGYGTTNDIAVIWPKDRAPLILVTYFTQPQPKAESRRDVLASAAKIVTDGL

Row | Compound | MIC [1, 12] [mg/L] | MIC [1, 13] [mg/L] | MIC [2, 12] [mg/L] | MIC [2, 13] [mg/L] | MIC [3, 15] [mg/L] | MIC [4, 12] [mg/L] | MIC [4, 13] [mg/L] | MIC [5, 12] [mg/L] | MIC [5, 13] [mg/L] | MIC [6, 12] [mg/L] | MIC [6, 13] [mg/L] | MIC [7, 12] [mg/L] | MIC [7, 13] [mg/L] | MIC [8, 12] [mg/L] | MIC [8, 13] [mg/L] | MIC [9, 12] [mg/L] | MIC [9, 13] [mg/L] | MIC [10, 12] [mg/L] | MIC [10, 13] [mg/L] | also measured
1 | CC(C)(O/N=C(\C(=O)N[C@@H]1C(=O)N2C(C(=O)[O-])=C(C[n+]3ccccc3)CS[C@H]12)c1csc(N)n1)C(=O)O [CAZ, ceftazidime] | ≤ 1 | > 16 | ≤ 1 | > 16 | 8 | ≤ 1 | 8 | 4 | > 16 | > 16 | > 16 | 2 | > 16 | > 16 | > 16 | > 16 | > 16 | > 16 | > 16 | MIC [3, 14]: > 16 mg/L
2 | CC1(C)S[C@@H]2[C@H](NC(=O)[C@H](N)c3ccccc3)C(=O)N2[C@H]1C(=O)O [AMP, ampicillin] | > 16 | > 16 | > 16 | > 16 | > 16 | ≤ 8 | > 16 | > 16 | > 16 | > 16 | > 16 | > 16 | > 16 | > 16 | > 16 | > 16 | > 16 | > 16 | > 16 | MIC (mg/liter) for β-lactam ([3]; E. coli EC86, without cyclic boronate 2 supplementation): >16 mg/L
3 | C[C@@H](O)[C@H]1C(=O)N2C(C(=O)O)=C(S[C@@H]3CN[C@H](C(=O)Nc4cccc(C(=O)O)c4)C3)[C@H](C)[C@H]12 [ERT, ertapenem] |  |  |  |  | 4 |  |  |  |  |  |  |  |  |  |  |  |  |  |  | 
4 | Cc1nnc(SCC2=C(C(=O)O)N3C(=O)[C@@H](NC(=O)Cn4cnnn4)[C@H]3SC2)s1 [FAZ, cefazolin] | 8 |  | 8 |  |  | 4 |  | > 16 | > 16 | > 16 | > 16 | > 16 | > 16 | 4 | > 16 | > 16 | > 16 | > 16 | > 16 | 
5 | CO/N=C(\C(=O)N[C@@H]1C(=O)N2C(C(=O)O)=C(CSc3nc(=O)c(=O)[nH]n3C)CS[C@H]12)c1csc(N)n1 [CRO, ceftriaxone] | < 0.5 | > 16 | < 0.5 | > 32 | 8 | < 0.5 | > 32 |  |  |  |  |  |  | 16 | > 32 | > 32 | > 32 | > 32 | > 32 | MIC [3, 14]: > 16 mg/L
6 | NC(=O)[C@@H]1CC[C@@H]2CN1C(=O)N2OS(=O)(=O)O [Avibactam, avibactam] |  |  |  |  |  |  |  |  |  |  |  |  |  |  |  |  |  |  |  | IC50 ([11]; preincubation 0 min): 9.9 ± 0.2 nM; IC50 ([11]; preincubation 10 min): 1.1 ± 0.1 nM; IC50 ([11]; preincubation 30 min): 0.4 ± 0.06 nM; IC50 ([11]; preincubation 60 min): 0.39 ± 0.01 nM; IC50 ([11]; preincubation 360 min): 6.4 ± 0.1 nM
7 | CO/N=C(\C(=O)N[C@@H]1C(=O)N2C(C(=O)[O-])=C(C[N+]3(C)CCCC3)CS[C@H]12)c1csc(N)n1 [FEP, cefepime] | 8 |  | 8 |  | ≤ 4 | ≤ 4 |  | ≤ 4 | > 32 | 32 | > 32 | > 32 | > 32 | 8 | > 32 | > 32 | > 32 | 32 | > 32 | 
